Data on six compounds can be found in publication PMC6337588, “Multi-Target Cinnamic Acids for Oxidative Stress and Inflammation: Design, Synthesis, Biological Evaluation and Modeling Studies” (Molecules, 2018).

Where “and” joins values, the source holds several entries; their conditions need not be identical. Equal entries are not always repeated.

A short description of data set [1]: Non enzymatic assay of superoxide radical scavenging activity (PMS/NADH/NBT). It is filed as biochemical. The method, then:
Superoxide radical is a main cause of oxidative stress, expressing its biological toxicity by the inactivation of iron-sulfur cluster containing enzymes. The superoxide anion radical (O2^−^•) is less toxic than the hydroxyl radical, but still being one of the most known toxic reactive oxygen species (ROS). In this assay the superoxide anion radicals were generated by a non-enzymatically assay and the compounds are tested at 100 μM final concentration (Table 2). Caffeic acid (CA) has been used as a reference compound. Compound 4ii presented the highest activity, followed by compound 3ii. We succeeded to derive a quantitative-structure activity relationship model for this activity in which the topological polar surface (TPAS) of the compounds seem to govern the superoxide anion scavenging activity:% Superoxide Anion Scavenging Activity (100 µM) = 0.019 (±0.007) TPSA + 0.813 (±0.358) n = 6, r = 0.962, r^2 = 0.926, q^2 = 0.694, s = 0.122, Q = 7.885, F1,6 = 3.701, α = 0.1 clog P vs. TPSA 0.
The superoxide radicals are generated by mixing N-methylphenazonium methyl sulfate (PMS), NADH and air–oxygen and determined by the nitroblue tetrazolium method and measured at 560 nm (Table 2). Caffeic acid was used as reference compound [17, 18, 28].

Data set [2] in a line: Inhibition of linoleic acid peroxidation (AAPH). Type of data set: biochemical. Particulars: anti-lipid peroxidation. An excerpt: We also used water-soluble 2,2′-[…](2-amidinopropane) hydrochloride (AAPH) for the generation of free radicals. AAPH has been extensively used as a clean and controllable source of thermally produced alkylperoxyl free radicals. The peroxyl radicals produced by the action of AAPH show total similarity to cellular activities such as lipid peroxidation. […] It seems that the presence of 3,5-di-tert-butyl-group greatly enhances protection against lipid peroxidation (6i/ii and 7i/ii followed by 3ii and 5ii). The lipid peroxidation inhibitory activity seems to be concentration dependent.
2,2’-Azobis(2-amidinopropane) dihydrochloride (AAPH) was used as a free radical initiator to start the oxidation reaction. The method was based on the production of conjugated diene hydroperoxide by oxidation of linoleic acid at 234 nm expressed as an increased absorption. Trolox was used as reference compound (93%) (Table 2).

Data set [3] is described as follows: Competition with DMSO for hydroxyl radicals (Fe3+/ascorbic acid system). It is filed as biochemical. The conditions noted are these: hydroxyl radical scavenging. The method, then:
Competition of the novel substituted acids with DMSO for hydroxyl radicals was measured. Hydroxyl radicals were generated using the Fe^3+/ascorbic acid system and expressed as a percentage inhibition of formaldehyde production in the presence of each compound at 100 μM (Table 2). All the synthesized derivatives strongly scavenge hydroxyl radicals at 100 μM in comparison to the reference compound Trolox.
The hydroxyl radicals generated by the Fe^3+/ascorbic acid system, were detected by the determination of formaldehyde produced from the oxidation of DMSO (Table 2). Trolox was used as reference compound [17, 18, 28].

A short description of data set [4]: Reducing activity of the stable radical DPPH. Type of data set: biochemical. The method, then:
The substituted acids were monitored for the antioxidant activity by the use of the stable 2,2-diphenyl-1-picrylhydrazyl radical (DPPH) at concentration 50 µM and 100 µM after 20 and 60 min (Table 1). In this assay the DPPH radical is reduced by single electron transfer from the antioxidant. Strong antioxidants are the phenoxide anions from phenolic compounds like catechol and derivatives, such as nordihydroguaretic acid (NDGA), the reference compound. The compounds presented medium reducing abilities from 29–61%, due to steric reasons; small differences were found among the compounds with time and concentration. 4-Br-substituted-3 phenyl acetic acid derivatives (Series I) are equipotent to 4-OH-substituted-3 phenyl acetic acid derivatives (Series II). No differences were observed between 4i and 5i and 4ii and 5ii.
To a solution of DPPH in absolute ethanol an equal volume of the compounds dissolved in DMSO was added. The final concentrations of the measured solutions of the novel acids were 50 and 100 µM starting from a stock solution (10 mM) in DMSO. The absorbance was recorded at 517 nm, after 20 and 60 min at room temperature (Table 1).

Data set [5] in a line: Experimental lipophilicity as RM values by reversed phase TLC (RPTLC). It is filed as physicochemical. The conditions noted are these: methanol/water 77/23 with 0.1% acetic acid, 24 °C, average of at least 5 measurements. The text has this:
Lipophilicity is a physicochemical property correlated with the biological activity. Lipophilicity influences ligand-target binding interactions, solubility, absorption, distribution, bioavailability, metabolism and elimination (ADME) and toxicological outcomes. The lipophilicity of the novel cinnamic acids was experimentally measured as RM values using a reverse phase thin layer chromatography (RPTLC) method. This is acknowledged as a reliable, fast and convenient approach for expressing lipophilicity (Table 1). RM relates to the thermodynamic Rf value in a logarithmic form. Bate-Smith and Westall firstly determined lipophilicity as RM values in 1950 [31]. The Br-substituted derivatives 1i–7i are more lipophilic than the OH-substituted ones 1ii–7ii which can be easily explained by their structural characteristics.
Reversed phase TLC (RPTLC) was performed on silica gel plates impregnated with 55% (v/v) liquid paraffin in light petroleum ether. The mobile phase was a methanol/water mixture (77/23, v/v) containing 0.1% of acetic acid. The plates were developed in closed chromatography tanks saturated with the mobile phase at 24 °C. Spots were detected under UV light. RM values were determined from the corresponding Rf values (from five individual measurements) using the equation RM = log[(1/Rf) − 1] [17, 18, 28].

Data set [6] is described as follows: ABTS+• decolorization assay. It is filed as biochemical. The conditions noted are these: 1 min, 734 nm. How it is done: No role for lipophilicity was found. Oxidation of ABTS with potassium persulfate generates directly the ABTS radical cation (ABTS^+•) with no involvement of an intermediary radical, which is then reduced upon adding electron-donating antioxidants.
In order to produce the ABTS radical cation (ABTS^+•), ABTS stock solution in water (7 mM) was mixed with potassium persulfate (2.45 mM) and left in the dark at room temperature for 12–16 h before use. Our published experimental technique was used (Table 2). The results are recorded after 1 min of the mixing solutions at 734 nm. The results were compared to the appropriate standard inhibitor Trolox.

A further data set addresses T1, soybean lipoxygenase (Glycine max, UniProt P08170).
T1 construct: purchased Sigma Chemical, Co. (St. Louis)
T1 sequence (P08170 1-839): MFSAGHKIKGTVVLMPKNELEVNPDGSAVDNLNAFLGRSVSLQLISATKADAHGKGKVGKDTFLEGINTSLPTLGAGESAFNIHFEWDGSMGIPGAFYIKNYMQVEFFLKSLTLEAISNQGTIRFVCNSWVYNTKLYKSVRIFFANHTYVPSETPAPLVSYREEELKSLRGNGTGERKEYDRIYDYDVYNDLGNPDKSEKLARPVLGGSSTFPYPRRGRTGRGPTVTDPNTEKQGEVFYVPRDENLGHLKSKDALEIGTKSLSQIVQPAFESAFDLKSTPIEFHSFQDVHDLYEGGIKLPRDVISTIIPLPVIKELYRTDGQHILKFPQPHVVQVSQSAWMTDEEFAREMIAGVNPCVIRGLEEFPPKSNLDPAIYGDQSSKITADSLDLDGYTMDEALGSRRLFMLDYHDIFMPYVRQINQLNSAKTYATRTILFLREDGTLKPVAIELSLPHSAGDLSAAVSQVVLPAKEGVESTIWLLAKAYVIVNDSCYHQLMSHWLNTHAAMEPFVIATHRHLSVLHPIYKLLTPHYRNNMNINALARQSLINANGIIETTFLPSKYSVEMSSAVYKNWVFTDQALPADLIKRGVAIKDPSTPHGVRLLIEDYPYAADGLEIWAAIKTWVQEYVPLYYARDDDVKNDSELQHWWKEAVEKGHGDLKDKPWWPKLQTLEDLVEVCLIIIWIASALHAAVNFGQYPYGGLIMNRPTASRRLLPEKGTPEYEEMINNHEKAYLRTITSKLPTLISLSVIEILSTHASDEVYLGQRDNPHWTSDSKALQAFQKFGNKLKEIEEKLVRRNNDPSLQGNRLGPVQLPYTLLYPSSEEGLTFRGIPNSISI
Description: Soybean lipoxygenase inhibition in vitro. It is filed as biochemical. The conditions noted are these: for IC50: sodium linoleate 0.1 mM, 234 nm, read-out: LOX IC50. How it is done: Many research groups have used readily obtainable soybean lipoxygenase, which is a homologue of mammalian lipoxygenase and well studied. Due to its availability and its well-characterised crystal structure, soybean LOX was selected to be used in this study.
In vitro study was evaluated as reported previously by our group. The tested compounds were incubated at room temperature with sodium linoleate (0.1 mM) and 0.2 mL of enzyme solution (1/9 × 104 w/v in saline). The method was based to the conversion of sodium linoleate to 13-hydroperoxylinoleic acid at 234 nm. […] In order to determine the IC50 values different concentrations were used.

Consider `O=C(O)/C=C/c1ccc(O)c(O)c1` [CA, Caffeic acid, reference compound], for which the “O2−•% 100 µM” value in data set [1] is 23%.
The compound `O=C(O)C(=Cc1cccc(Oc2ccccc2)c1)c1ccc(Br)cc1` [Compound 1i, 2-(4-Bromophenyl)-3-(3-phenoxyphenyl)acrylic acid] registered a melting point of 152 to 153 °C. Besides, in data set [2], the “AAPH% 50 µM” value stood at 34% and the “AAPH% 100 µM” value was 90%. Further, the “HO•% 100 µM” value in data set [3] is 94%. Further, in data set [4], the “RA% 50 µM 20 min” value worked out at 38%, the “RA% 50 µM 60 min” value is 37%, the “RA% 100 µM 20 min” value worked out at 44% and the “RA% 100 µM 60 min” value is on record as 46%. Further, the “O2−•% 100 µM” value in data set [1] came out at 54%. The “RM (±SD)” value in data set [5] is −0.103 (0.009). Besides, the “ABTS+•% 100 µM” value in data set [6] is listed as 29%. The IC50 at soybean lipoxygenase is 100 µM.
Consider `O=C(O)C(=Cc1cccc(Oc2ccccc2)c1)c1ccc(O)cc1` [Compound 1ii, 2-(4-Hydroxyphenyl)-3-(3-phenoxyphenyl)acrylic acid], for which the melting point lay within 105 to 107 °C. Also, in data set [2], the “AAPH% 50 µM” value is 22% and the “AAPH% 100 µM” value was 94%. Also, the “HO•% 100 µM” value in data set [3] is 100%. Moreover, in data set [4], the “RA% 50 µM 20 min” value is given as 40%, the “RA% 50 µM 60 min” value was 39%, the “RA% 100 µM 20 min” value was determined as 45% and the “RA% 100 µM 60 min” value came to 47%. Further, the “O2−•% 100 µM” value in data set [1] is on record as 8%. The “RM (±SD)” value in data set [5] is reported as −0.537 (0.002). Also, the “ABTS+•% 100 µM” value in data set [6] was 83.4% and 83%. The concentration for half-maximal inhibition (IC50) at soybean lipoxygenase worked out at 91.5 µM.
`CN(C)c1ccc(C=CC=C(C(=O)O)c2ccc(O)cc2)cc1` [Compound 3ii, 5-(4-(Dimethylamino)phenyl)-2-(4-hydroxyphenyl)penta-2,4-dienoic acid]: the melting point was 204 to 205 °C. Also, in data set [2], the “AAPH% 50 µM” value is recorded as 71% and the “AAPH% 100 µM” value stood at 95%. The “HO•% 100 µM” value in data set [3] came out at 99%. Further, in data set [4], the “RA% 50 µM 20 min” value came to 43%, the “RA% 50 µM 60 min” value was determined as 35%, the “RA% 100 µM 20 min” value is on record as 44% and the “RA% 100 µM 60 min” value was 46%. The “O2−•% 100 µM” value in data set [1] came to 85%. For the same compound, in data set [5], the “RM (±SD)” value is recorded as −0.642 (0.032). In addition, in data set [6], the “ABTS+•% 100 µM” value is given as 63%. Further, the IC50 on soybean lipoxygenase came to 89 µM.
Compound `O=C(O)C(=CC(Br)=Cc1ccccc1)c1ccc(Br)cc1` [Compound 4i, 4-Bromo-2-(4-bromophenyl)-5-phenylpenta-2,4-dienoic acid] had a melting point of 211 to 212 °C. Moreover, in data set [2], the “AAPH% 50 µM” value came out at 52% and the “AAPH% 100 µM” value amounted to 85%. The “HO•% 100 µM” value in data set [3] is listed as 83%. Further, in data set [4], the “RA% 50 µM 20 min” value is on record as 30%, the “RA% 50 µM 60 min” value was determined as 30%, the “RA% 100 µM 20 min” value came out at 38% and the “RA% 100 µM 60 min” value stood at 36%. For the same compound, in data set [1], the “O2−•% 100 µM” value worked out at 46%. Also, in data set [5], the “RM (±SD)” value is reported as 0.423 (0.017). Further, the “ABTS+•% 100 µM” value in data set [6] is on record as 24%. The “LOX % Inhibition 100 µM” value at soybean lipoxygenase (100 µM) is reported as 28%. Further, the inhibition at 100 µM at soybean lipoxygenase (100 µM, read-out: LOX % Inhibition 100 µM) stood at 27.9%.
In turn, `CC(C)(C)c1cc(C=C(C(=O)O)c2ccc(O)cc2)c(O)c(C(C)(C)C)c1` [Compound 6ii, 3-(3,5-di-tert-Butyl-2-hydroxyphenyl)-2-(4-hydroxyphenyl)acrylic acid] came in with a melting point of 134 to 136 °C. In addition, in data set [2], the “AAPH% 50 µM” value was found to be 64% and the “AAPH% 100 µM” value amounted to 96%. Further, the “HO•% 100 µM” value in data set [3] stood at 100%. In addition, in data set [4], the “RA% 50 µM 20 min” value stood at 43%, the “RA% 50 µM 60 min” value is 36%, the “RA% 100 µM 20 min” value was 31% and the “RA% 100 µM 60 min” value was determined as 36%. In addition, the “RM (±SD)” value in data set [5] is 0.622 (0.025). Further, the “ABTS+•% 100 µM” value in data set [6] came to 38%. Also, on soybean lipoxygenase, the IC50 amounted to 74 µM.
